Broadly, the Km is the substrate concentration at which the rate is half of its maximum.

The text below walks through data of patent US20080311047A1, “Multimetric Biosensors and Methods of Using Same” (priority 2005, published 2008).

For assay [1], the target named is T1, FLIPW-CTY (eCFP-TrpR-Venus) (Escherichia coli, UniProt P0A881).
T1 construct: made in house; host or cells: E. coli BL21(DE3)gold
Briefly: In vitro FRET titration of FLIPW-CTY with tryptophan substrates. The assay is classed as binding, E. coli. The note with it: for Kd: 20 mM MOPS pH 7.0, read-out: Affinity of FLIPW-CTY for tryptophan substrate. As to the method:
(§1) In Vitro Characterization of FLIPW and FLIPpur Sensors: Purified sensor was added to a dilution series of ligand in 20 mM MOPS pH 7.0 (FLIPW) or 20 mM MES pH7.0 (FLIPpur) in the range of 10^−2 to 10^−6 M and analyzed in a monochromator microplate reader (Safire, Tecan, Austria; excitation 433/12 nm, emission 485/12 and 528/12 nm). Protein was diluted to give Venus/eYFP readouts of 20,000 to 30,000 at a manual gain between 70-75. By using the change in FRET ratio upon binding of ligand, binding constants (Kd) were determined by fitting the substrate titration curves to a single-site-binding isotherm. Formulas for decrease in ratio upon ligand binding:
(§2) R=Rmax−(n·[S])/(Kd+[S])·(Rmax−Rmin)
(§3) with [S], substrate concentration; n, number of equal binding sites; R, ratio; Rmax, maximum ratio in the absence of ligand; and Rmin, minimum ratio at saturation with ligand. Formula for increase in ratio upon ligand binding:
(§4) R=Rmin+(Rmax−Rmin)·(n·[S])/(Kd+[S])
(§5) with [S], substrate concentration; n, number of equal binding sites; R, ratio; Rmax, maximum ratio at saturation with ligand; and Rmin, minimum ratio in absence of ligand. Three independent protein preparations were analyzed and each protein preparation was analyzed in triplicate.

For assay [2], the target named is T2, FLIPpur (His6-eCFP-PurR-eYFP fusion of E. coli purine repressor PurR, residues 56 to 341, Arg190Gln, Leu263Pro) (Escherichia coli, UniProt P0ACP7, L263P/R190Q).
T2 construct: expressed in E. coli BL21(DE3)gold, purified
T2 sequence (P0ACP7 56-341 R190Q/L263P): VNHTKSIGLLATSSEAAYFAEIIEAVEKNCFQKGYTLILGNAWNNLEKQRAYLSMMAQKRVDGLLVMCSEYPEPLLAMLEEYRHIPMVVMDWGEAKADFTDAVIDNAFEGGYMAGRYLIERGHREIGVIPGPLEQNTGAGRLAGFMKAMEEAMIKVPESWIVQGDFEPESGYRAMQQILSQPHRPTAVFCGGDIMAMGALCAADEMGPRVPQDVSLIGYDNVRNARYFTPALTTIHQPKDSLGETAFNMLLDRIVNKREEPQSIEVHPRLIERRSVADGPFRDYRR
Description: hypoxanthine titration of FLIPpur by FRET ratio change. The format is binding.
Description: FLIPW and FLIPpur constructs were harbored in E. coli BL21(DE3)gold and sensor proteins were produced and purified as described previously (Fehr et al. 2002).

Assay [3] relates to E. coli purine repressor PurR variant Arg190Gln. Particulars: Lu et al. 1998; cited from earlier work.
The target of assay [4] is T3, FLIPW-CTYT (eCFP-TrpR-Venus-TrpR) (Escherichia coli, UniProt P0A881).
T3 construct: The gene products of pTK203, pTK204, and pTK205 were denoted FLIPW-TCTY, FLIPW-CTYT, and FLIPW-CTTY, respectively; made in house; host or cells: E. coli BL21(DE3)gold
Briefly: In vitro FRET titration of FLIPW-CTYT with tryptophan substrates. The format is binding, E. coli. Particulars: 20 mM MOPS pH 7.0; read-out: Affinity of FLIPW-CTYT for tryptophan substrate. As to the method: as §1, §2, §3, §4, §5

In assay [5] the test system is COS-7 cells. The note with it: read-out: apparent KM for combined transport and metabolism. Here is the method:
(§6) Tissue Culture and Transfection: For cytosolic expression in COS-7 cells, the gene encoding CTYT was amplified by PCR with primers encoding unique BamHI and EcoRI restriction sites at the 5′ and 3′ end, respectively, and cloned into BamHI/EcoRI digested pcDNA3.1(+) vector (Invitrogen), resulting in plasmid pTK222. COS-7 cells were grown in Dulbecco's modified Eagle's medium (high glucose; DMEM, Gibco) with 10% fetal calf serum and 50 μg/ml penicillin and streptomycin (Gibco). Cells were cultured at 37° C. and 5% CO2. For imaging, cells were cultured in 8-well LabTekII German tissue culture glass slides (Nalg Nunc International) and transiently transfected at 50-70% confluence using Lipofectamine 2000 Reagent (Invitrogen) in Opti-MEM I reduced serum medium (Gibco). After transfection, cells were cultured for 16 hours in Opti-MEM followed by 3 hours in DMEM prior to imaging.
(§7) Microplate Assays: Adherent cells in 96-well microplates were washed once with 100 μl Tyrode's buffer (119 mM NaCl, 2.5 mM KCl, 2 mM CaCl2, 2 mM MgCl2, 25 mM HEPES, 30 mM glucose, pH 7.3-7.4).

The target in assay [6] is FLIPW-CTY (eCFP-TrpR-Venus fusion of E. coli tryptophan repressor TrpR, SEQ ID NO: 3) (Escherichia coli, UniProt P0A881). Briefly: L-tryptophan analog titration of FLIPW-CTY by FRET ratio change, single-site-binding isotherm. The note with it: FLIPW-CTY Kd compared with free TrpR (Marmorstein et al. 1987); larger than free TrpR.
Description: The protein sequence encoded on pTK164 was denoted FLIPW-CTY.
The target in assay [7] is FLIPW-TCTY (TrpR-eCFP-TrpR-Venus fusion of E. coli tryptophan repressor TrpR, SEQ ID NO: 5) (Escherichia coli, UniProt P0A881). Description: L-tryptophan titration of FLIPW-TCTY by FRET ratio change. The note with it: 20 mM MOPS pH 7.0, apparent binding constant.
The subject of assay [8] is COS-7 cells. Briefly: tryptophan uptake by COS-7 cell cultures in 96-well microplates monitored with FLIPW-CTYT. Particulars: in words. The format is cell-based, monkey. Here is the method: as §6, §7
In the next assay the target is T4, human TAT1 (Homo sapiens, UniProt Q8TF71).
T4 construct: host or cells: Xenopus oocytes
T4 sequence (Q8TF71 1-515): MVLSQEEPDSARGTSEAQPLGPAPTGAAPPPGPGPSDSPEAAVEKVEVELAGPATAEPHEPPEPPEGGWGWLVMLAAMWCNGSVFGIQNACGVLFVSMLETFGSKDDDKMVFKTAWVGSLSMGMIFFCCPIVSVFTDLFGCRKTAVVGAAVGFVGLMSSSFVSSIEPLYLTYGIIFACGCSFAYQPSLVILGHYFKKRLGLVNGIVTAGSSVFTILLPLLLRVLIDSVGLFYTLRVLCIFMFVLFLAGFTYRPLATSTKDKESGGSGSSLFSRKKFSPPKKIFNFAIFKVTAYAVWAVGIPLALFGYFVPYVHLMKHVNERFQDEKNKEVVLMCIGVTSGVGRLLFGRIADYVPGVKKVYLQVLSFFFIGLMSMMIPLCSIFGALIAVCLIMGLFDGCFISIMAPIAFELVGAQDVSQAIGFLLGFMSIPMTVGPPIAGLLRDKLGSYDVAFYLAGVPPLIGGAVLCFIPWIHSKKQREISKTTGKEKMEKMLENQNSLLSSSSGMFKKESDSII
The note with it: human TAT1 in Xenopus oocytes (Kim et al. 2002); cited from earlier work.

Another assay concerns the target T5, LAT2 (Homo sapiens, UniProt Q9UHI5).
T5 construct: host or cells: Xenopus oocytes
T5 sequence (Q9UHI5 1-535): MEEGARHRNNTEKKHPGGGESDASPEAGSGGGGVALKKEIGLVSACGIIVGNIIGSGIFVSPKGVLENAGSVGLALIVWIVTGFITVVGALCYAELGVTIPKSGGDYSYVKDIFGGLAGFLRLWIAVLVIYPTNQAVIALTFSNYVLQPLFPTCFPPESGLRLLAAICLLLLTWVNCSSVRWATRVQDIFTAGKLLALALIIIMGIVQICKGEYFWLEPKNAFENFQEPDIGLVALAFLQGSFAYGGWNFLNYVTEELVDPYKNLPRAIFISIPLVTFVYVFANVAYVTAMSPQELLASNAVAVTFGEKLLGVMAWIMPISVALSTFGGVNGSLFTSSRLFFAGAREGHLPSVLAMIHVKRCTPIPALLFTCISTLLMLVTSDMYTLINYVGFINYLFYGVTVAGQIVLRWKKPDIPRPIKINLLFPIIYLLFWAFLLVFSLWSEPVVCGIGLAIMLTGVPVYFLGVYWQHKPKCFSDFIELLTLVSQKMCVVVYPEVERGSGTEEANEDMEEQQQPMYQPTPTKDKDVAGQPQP
The note with it: LAT2 in Xenopus oocytes (Pineda et al. 1999); cited from earlier work.

Assay [9] deals with E. coli tryptophan operon repressor TrpR, wild-type, SEQ ID NO: 1. The note with it: Marmorstein et al. 1987; cited from earlier work.

Turning to `N[C@H](Cc1c[nH]c2ccccc12)C(=O)O` [D-tryptophan], in assay [1], the Kd came out at 3.1 ± 0.3 mM. Also, in assay [1] (titration of FLIPW-CTY, higher concentrations than L-tryptophan), the “Concentration giving decrease of FRET ratio relative to L-tryptophan” value is “about 5 fold”.

Regarding `Cc1ccc2[nH]cc(C[C@H](N)C(=O)O)c2c1` [L-5-methyl-tryptophan], in assay [1], the Kd amounted to 0.06 ± 0.01 mM.

Consider `O=c1[nH]cnc2nc[nH]c12` [hypoxanthine], for which, in [2], the Kd came out at 5.6 ± 0.7 µM. For the same compound, the “Kd of free PurR Arg190Gln compared with FLIPpur” value in assay [3] is listed as “identical to that of free PurR Arg190Gln”.

`N[C@@H](Cc1c[nH]c2ccc(O)cc12)C(=O)O` [L-5-hydroxy-tryptophan]: the Kd in [1] turned out to be 6 ± 0.8 mM.

Take `N[C@@H](Cc1c[nH]c2ccccc12)C(=O)O` [L-tryptophan]: the Kd turned out to be 0.22 ± 0.02 mM in assay [1], 210 ± 20 µM in [4] and 20 µM in [7]. Moreover, the Km with COS-7 cells [5] is 880 ± 270 nM. Also, the “apparent Kd relative to free TrpR” value in [6] is reported as “about an order of magnitude”. The “effective KM for combined tryptophan uptake and metabolism” value with COS-7 cells [8] was “in the micromolar range”. Moreover, the Tryptophan uptake affinity on human TAT1 was 450 µM; on LAT2, 58 µM. Further, in assay [9], the affinity entry was “micromolar affinity”.
